Experimental data reported in US7629318B2, “Immunosuppressant compounds, methods and uses related thereto” (priority 2002, dated 2009).
Where “and” joins values, the source holds several entries; their conditions need not be identical. Equal values may be shown once. Numbered stars: 1 amine (or outer) side, 2 acyl side, 3 side chain; on linkers, the order of the positions; unused ones are H or OH. Square brackets hold non-standard residues; d marks the D form. Peptide text beside a SMILES is read from it. * marks the point of attachment. ξ: configuration not given here. Gly(1-amidinopiperidin-4-yl) = N=C(N)N1CCC([C@H](N)C(=O)O)CC1; X1 = CC(C)c1oc([C@H](CO)N[*:1])nc1C(=O)[*:2]; Pro(3R-Ph) = O=C(O)[C@H]1NCC[C@@H]1c1ccccc1; Met(O) = CS(=O)CC[C@H](N)C(=O)O; Tic = O=C(O)[C@@H]1Cc2ccccc2CN1; Cha = N[C@@H](CC1CCCCC1)C(=O)O; NMe(benzyl) = CN(Cc1ccccc1)*; ξDisc = O=C(O)C1NCc2ccccc21; Nle = CCCC[C@H](N)C(=O)O; X3 = OCCOCCN*

Key:
[1] = Stability of compounds in mouse blood plasma; type: in vitro ADME
Summary of the method: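 Compounds at 5 μM final in rat, mouse or human plasma, incubated at 37 °C and sampled at 0, 6 and 24 h. Proteins precipitated with acetonitrile and the supernatant dried and reconstituted in 50% acetonitrile/0.1% TFA. PBS controls run for unstable compounds.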

[2] = system: T-cell proliferation, lymph node cells of chimeric 0401-IE transgenic mice; conditions: DR4-LN; for IC50: read-out: Immunsupressive assays DR4-LN (IC50); for Immunsupressive assays DR4-LN (Max) % Inhibition: maximal inhibition
Summary of the method: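 Antigen-primed lymph node cells (1.5×10^5/well) from mice lacking murine class II and carrying a chimeric human RA-associated class II transgene, cultured 3 days with ovalbumin at half-maximal dose plus compound (~0.1–200 uM) in serum-free HL-1. Proliferation read by 3H-thymidine incorporation over the final 16 h.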

[3] = system: T cell activation from 0404(DR14) chimeric MHCII-mice; experiment: In vivo inhibition of T cell activation by co-immunisation, DR14 mice immunised with OVA; design: species or system mouse; % Reduction of response to PPD(OVA): concentration or dose not given beside the values; conditions: for % Reduction of response to OVA: DR14 mice co-immunised with OVA plus compound, mean % inhibition from the control over 3 concentrations of antigen (6.7, 20 and 60 ug); for % Reduction of response to PPD(OVA): specificity control: response to PPD in the same cell pool, OVA co-immunised mice
Text: Mouse strains DR4 and DR14 carry chimeric MHC-II transgenes that encode the N-terminal domains of the respective DR molecules (forming the peptide binding site) and the remaining (2nd extracellular domains, transmembrane and intracytoplasmic domains) of the murine class II molecule I Ed. These strains are deficient of other murine class II, and thus, all helper T cell responses are triggered by peptides presented in the respective human MHC-II binding site. As an initial in vivo test of subject inhibitors designed to bind to DR, DR-transgenic mice were co-immunized with a pre-defined dose of protein antigen and different amounts of the compound antagonist to be tested. In this set-up, both antigen and compound were emulsified together in complete Freund's adjuvant (CFA), and thus, a direct competition between the two components for presentation by DR was tested. Readout of the assay is ex vivo antigen-specific activation of T cells from regional lymph nodes explanted 9 days after co-immunization. In a typical experiment, antigen dose-response was investigated, and the curves from mice immunized with antigen were compared to those from mice co-immunized with antigen+compound. The dose response curves were generated using lymph node cells pooled at equal numbers from 2-3 mice per experimental group. The experimental system also permits assessment of inherent antigenicity of the compound antagonist. This was done by setting up a dose-response study from the same cell pool using different concentrations of the compund under investigation instead of the antigen. As a specificity control, the response to Purified Protein Derivative (PPD), the major protein component of CFA, was tested in the same cell pool.
All Gpg conataining compounds have significant immunosupressive properties in one or both of the in-vivo models. Gpg-containing compounds also show improved activity or improved specificity over the Arg-containing equivilent. Further, compounds according to Formula I show activity in this assay.
Compounds of the invention were injected as an Emulsion prepared using CFA (Bacto Adjuvant Complete H37 Ra, Difco, Order-No. 3113-60); proteins 10 mg/ml in PBS, inhibitors 5 μM in 10% DMSO. CFA, PBS, antigen, and inhibitor were placed in the barrel of a 5-ml syringe (total volume not more than 1 mL). The mixture was sonicated at an amplitude less than 40% (30-35%) for two separated 15 s periods. The emulsion should seem to be hard and not liquid at this point. A drop of emulsion placed on the surface of water should not melt. The resulting emulsion was pushed through the needle into a 1 ml syringe with a needle (Gr.18, 26G×1″), and air bubbles were removed. Mice were co-immunized with 50 μg protein and 210 nM compound antagonist in final 100 μl emulsion into the tail base. Antigen+Compound and CFA are mixed 1:1 vol/vol. The best results are obtained using DR 4 mice immunised with HEL and DR 14 mice immunized with OVA.
Mice were injected at the tail-base as follows: Holding the tail of a mouse with thumb and middle finger, the index finger was placed under the base of the mouse's tail. The needle of the syringe was inserted about 1.5 cm from the tail base (hairy end) under the skin and pushed about 1 cm into the tail. 100 μl emulsion was injected into the mouse. After 9 days, mice were killed and lymph nodes removed.
The inhibitory effect of the candidate compounds on T-cell activation was tested using T-cells and antigen-presenting cells isolated from the lymph nodes of chimeric DR4-IE transgenic mice (Taconic, USA) previously co-immunized with hen egg lysozyme plus compound, or DR14-IE transgenic mice co-immunized with ovalbumin plus compound according to standard procedures (Adorini et al., 1988, Mueller et al., 1990; Current Protocols in Immunology, Vol. 2, 7.21; Ito et al., 1996). […]

| SMILES | Stability (Arbitrary units) Mouse 6 h [1] [Arbitrary units] | Stability (Arbitrary units) Mouse 24 h [1] [Arbitrary units] | IC50 [2] | % Reduction of response to OVA [3] [%] | % Reduction of response to PPD(OVA) [3] [%] | Immunsupressive assays DR4-LN (Max) % Inhibition [2] [%] |
| --- | --- | --- | --- | --- | --- | --- |
| CCCC[C@H](NC(=O)C1c2ccccc2CN1C(=O)[C@@H](NC(=O)[C@H](CC1CCCCC1)NC(C)=O)C1CCN(C(=N)N)CC1)C(=O)N(C)Cc1ccccc1 (single isomer, unassigned) [Compound P78-1] | 93 | 18 | 34 µM | – | – | – |
| CSCC[C@H](NC(=O)C1c2ccccc2CN1C(=O)[C@@H](NC(=O)[C@H](CC1CCCCC1)NC(C)=O)C1CCN(C(=N)N)CC1)C(=O)N1CC[C@H](c2ccccc2)[C@H]1C(=O)N[C@@H](CO)c1nc(C(=O)N(C)C)c(C(C)C)o1 (stereo partly drawn) [Compound P41-1, Ac-Cha-Gpg-Disc-Met-βPhPro-[S(oxaz)L]-NMe2] (Ac-[Cha][Gly(1-amidinopiperidin-4-yl)][ξDisc]M[Pro(3R-Ph)][X1]-NMe2) | 100 | 111 | 49 µM | 50.1 | 21.6 | 96 |
| CSCC[C@H](NC(=O)[C@@H]1Cc2ccccc2CN1C(=O)[C@@H](NC(=O)[C@H](CC1CCCCC1)NC(C)=O)C1CCN(C(=N)N)CC1)C(=O)N1CC[C@H](c2ccccc2)[C@H]1C(=O)N[C@@H](CO)c1nc(C(=O)N(C)C)c(C(C)C)o1 [Compound P60, Ac-Cha-Gpg-Tic-Met-βPhPro-[S(oxaz)L]-NMe2] (Ac-[Cha][Gly(1-amidinopiperidin-4-yl)][Tic]M[Pro(3R-Ph)][X1]-NMe2) | 111 | 95 | 29 µM | 50.3 | 28.1 | 97 |
| CCCC[C@H](NC(=O)[C@@H]1Cc2ccccc2CN1C(=O)[C@H](CCCNC(=N)N)NC(=O)[C@H](CC1CCCCC1)NC(C)=O)C(=O)N1CC[C@H](c2ccccc2)[C@H]1C(=O)N[C@@H](CO)c1nc(C(=O)N(C)C)c(C(C)C)o1 [Compound P51, Ac-Cha-Arg-Tic-Nle-βPhPro-[S(oxaz)L]-NMe2] (Ac-[Cha]R[Tic][Nle][Pro(3R-Ph)][X1]-NMe2) | – | 136 | 38 µM and 36 µM | 43.1 | 3.5 | 100 |
| CC(=O)N[C@@H](CC1CCCCC1)C(=O)N[C@H](C(=O)N1Cc2ccccc2C[C@H]1C(=O)N[C@@H](CC[S+](C)[O-])C(=O)N1CC[C@H](c2ccccc2)[C@H]1C(=O)N[C@@H](CO)c1nc(C(=O)N(C)C)c(C(C)C)o1)C1CCN(C(=N)N)CC1 (stereo partly drawn) [Compound P47, Ac-Cha-Gpg-Tic-Met(O)-βPhPro-[S(oxaz)L]-NMe2] (Ac-[Cha][Gly(1-amidinopiperidin-4-yl)][Tic][Met(O)][Pro(3R-Ph)][X1]-NMe2) | 126 | 111 | 77 µM | – | – | 77 |
| CCCC[C@H](NC(=O)C1c2ccccc2CN1C(=O)[C@H](CCCNC(=N)N)NC(=O)[C@H](CC1CCCCC1)NC(C)=O)C(=O)N(C)Cc1ccccc1 (stereo partly drawn) [Compound P72-1, Ac-Cha-Arg-Disc-Nle-N(Me)Bn] (Ac-[Cha]R[ξDisc][Nle]-{NMe(benzyl)}) | 97 | 75 | 31 µM | – | – | 103 |
| CSCC[C@H](NC(=O)[C@@H]1Cc2ccccc2CN1C(=O)[C@H](CCCNC(=N)N)NC(=O)[C@H](CC1CCCCC1)NC(C)=O)C(=O)N1CC[C@H](c2ccccc2)[C@H]1C(N)=O [Compound P31, Ac-Cha-Arg-Tic-Met-βPhPro-NH2] (Ac-[Cha]R[Tic]M[Pro(3R-Ph)]-NH2) | 86 | 56 | 18 µM | – | – | 64 |
| CCCC[C@H](NC(=O)[C@@H]1Cc2ccccc2CN1C(=O)[C@@H](NC(=O)[C@H](CC1CCCCC1)NC(C)=O)C1CCN(C(=N)N)CC1)C(=O)NCCOCCO [Compound P70, Ac-Cha-Gpg-Tic-Nle-N(H)CH2CH2OCH2CH2OH] (Ac-[Cha][Gly(1-amidinopiperidin-4-yl)][Tic][Nle]-X3) | 105 | 82 | 42 µM | 56.1 | 52.3 | 54 |
| CCCC[C@H](NC(=O)C1c2ccccc2CN1C(=O)[C@@H](NC(=O)[C@H](CC1CCCCC1)NC(C)=O)C1CCN(C(=N)N)CC1)C(=O)N(C)Cc1ccccc1 (single isomer, unassigned) [Compound P76-1, Ac-Cha-Gpg-Disc-Nle-N(Me)Bn] | 93 | 16 | 34 µM | – | – | 103 |
| CCCC[C@H](NC(=O)C1c2ccccc2CN1C(=O)[C@@H](NC(=O)[C@H](CC1CCCCC1)NC(C)=O)C1CCN(C(=N)N)CC1)C(=O)N1CC[C@H](c2ccccc2)[C@H]1C(=O)N[C@@H](CO)c1nc(C(=O)N(C)C)c(C(C)C)o1 (stereo partly drawn) [Compound P81-1] (Ac-[Cha][Gly(1-amidinopiperidin-4-yl)][ξDisc][Nle][Pro(3R-Ph)][X1]-NMe2) | 87 | 84 | 63 µM | – | – | – |
| CSCC[C@H](NC(=O)[C@@H]1Cc2ccccc2CN1C(=O)[C@H](CCCNC(=N)N)NC(=O)[C@H](CC1CCCCC1)NC(C)=O)C(N)=O [Compound P1, Ac-Cha-Arg-Tic-Met-NH2] (Ac-[Cha]R[Tic]M-NH2) | – | 5 | 64 µM and 84 µM | – | – | 41 |
| CSCC[C@H](NC(=O)C1c2ccccc2CN1C(=O)[C@@H](NC(=O)[C@H](CC1CCCCC1)NC(C)=O)C1CCN(C(=N)N)CC1)C(N)=O (stereo partly drawn) [Compound P66-1, Ac-Cha-Gpg-Disc-Met-NH2] (Ac-[Cha][Gly(1-amidinopiperidin-4-yl)][ξDisc]M-NH2) | 115 | 112 | 120 µM | – | – | 20 |
| CSCC[C@H](NC(=O)C1c2ccccc2CN1C(=O)[C@H](CCCNC(=N)N)NC(=O)[C@H](CC1CCCCC1)NC(C)=O)C(N)=O (stereo partly drawn) [Compound P12-1, Ac-Cha-Arg-Disc-Met-NH2] (Ac-[Cha]R[ξDisc]M-NH2) | 76 | 38 | > 200 µM | – | – | 5 |
